Data taken from article PMC9841524, “Structure-Based Rational Design of Small α-Helical Peptides with Broad-Spectrum Activity against Multidrug-Resistant Pathogens” (Journal of Medicinal Chemistry, 2022).
Where two headings read alike, the source gives them in different places. Where no end group is shown, it is not given here.

How the values were obtained:
[1] = system: P. aeruginosa (ATCC 27883); experiment: MIC, standard microtiter dilution (CLSI); type: cell-based, Pseudomonas aeruginosa; conditions: broth microdilution (CLSI), CAMHB, 37 °C, 24 h
How it was run: (§1)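 Inoculum 10^6 CFU/mL in CAMHB against 2-fold peptide series; salt variants used 150 mM NaCl, 4.5 mM KCl, 6 mM NH4Cl, 1 mM MgCl2, 2 mM CaCl2, or 25% FBS.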

E. coli (ATCC 25922) = conditions: broth microdilution (CLSI), CAMHB, 37 °C, 24 h
How it was run: as §1

MRSA (ATCC BAA-1556) = conditions: broth microdilution (CLSI), CAMHB, 37 °C, 24 h
How it was run: as §1

S. aureus (ATCC 29213) = experiment: MIC, standard microtiter dilution (CLSI); type: cell-based; conditions: broth microdilution (CLSI), CAMHB, 37 °C, 24 h
How it was run: as §1

[2] = system: human red blood cells (hRBCs); experiment: Hemolytic assay; type: cell-based; conditions: 2 h, 37 °C
How it was run: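 Percent hemolysis uses PBS as 0% and 1% Triton X-100 as 100% references, from supernatant absorbance at 567 nm. Red cells (4% in PBS, equal volume) exposed 2 h at 37 °C without agitation to 2-fold serially diluted peptide.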

[3] = CD spectroscopy, helicity; type: physicochemical; parameters: key to Δ[θ]222 induced by TFE / Δ[θ]222 induced by Liposomes: mean residue molar ellipticity, mdeg cm2/(dmol × res); conditions: for [θ]222 mean residue molar ellipticity, TFE / [θ]222 mean residue molar ellipticity, Liposomes / [θ]222 mean residue molar ellipticity, PBS: CD at 222 nm, 25 °C; for [θ]222 mean residue molar ellipticity, TFE: aqueous buffer containing 50% TFE; for [θ]222 mean residue molar ellipticity, Liposomes / Δ[θ]222 induced by Liposomes: bacterial membrane mimicking liposomes; for [θ]222 mean residue molar ellipticity, Liposomes: peptide:lipid molar ratio 1:1.05; for [θ]222 mean residue molar ellipticity, PBS: phosphate buffer saline pH 7.0; for Δ[θ]222 induced by TFE / Δ[θ]222 induced by Liposomes: difference to PBS; for Δ[θ]222 induced by TFE: 50% TFE; for % of helicity induced by TFE: increase in molar ellipticity at 222 nm in the presence of 50% TFE; for % of helicity induced by Liposomes: increase in molar ellipticity at 222 nm in the presence of liposomes;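 for % of helicity induced by Liposomes: share of the total helicity with liposomes gained over the same peptide in PBS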;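 for % of helicity induced by TFE: share of the total helicity in TFE gained over the same peptide in PBS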
Method: The CD spectra of peptides were recorded using a Jasco J-1500 CD spectrophotometer (Jasco, Easton, MD) at 25 °C with a 1 mm path length cell. Wavelengths from 190 to 260 nm were scanned with 1.0 nm step resolution, 100 nm/min speed, 0.4 s response time, and 1 nm bandwidth. CD spectra of the peptides were collected and averaged over three scans in 10 mM sodium phosphate buffer (pH 7.2), helix-inducing solvent 50% TFE (v/v), and bacterial mimic liposomes (75 μM lipid). Spectra were corrected by subtracting a baseline spectrum containing only buffer or 50% TFE or liposomes. The mean residue molar ellipticity was calculated using the formula [drawing 3] where Ab222 is the absorbance observed at 222 nm, MRW is the mean residue molecular weight, C is the concentration in mg/mL, and L is the path length.
Table S1. RP-HPLC retention times and CD spectroscopy analysis of the selected peptides Peptide tR (min)a [θ]222b Δ[θ]222 induced by % of helicity inducedc by PBS TFE Liposomes TFE Liposomes TFE Liposomes […]
atR (min) denotes the retention time at 25°C by RP-HPLC. bThe mean residue molar ellipticity [θ] 222 (mdeg cm2/(dmol × res)) at 222 nm was measured at 25 °C in phosphate buffer saline (PBS, pH 7.0), in aqueous buﬀer containing 50% TFE (TFE), or in presence of bacterial membrane mimicking liposomes (peptide:lipid […]
c% helix induced is the increase in the molar ellipticity at 222 nm (in percentage) of a peptide in the presence of TFE or liposomes.

[4] = system: K. pneumoniae (ATCCBAA-1705); experiment: MIC, standard microtiter dilution (CLSI); type: cell-based, Klebsiella pneumoniae; conditions: broth microdilution (CLSI), CAMHB, 37 °C, 24 h
How it was run: as §1

[5] = Relative hydrophobicity as RP-HPLC retention time; type: physicochemical; conditions: chromatographic, Phenomenex Luna C18 4 μm 150 × 4.6 mm, linear AB gradient 1% acetonitrile/min, 0.3 mL/min, A water 0.1% TFA, B acetonitrile 0.1% TFA, 25 °C
Method: The purity analysis of the peptides was conducted on a RP-HPLC system (Shimadzu; LC-20ADXR) by using a Phenomenex (Luna) analytical C18 column (4 μm, 150 × 4.6 mm). The mass of the purified peptides was determined in the positive-ion mode using Q-TOF LC/MS (Compass Hystar 4.1, Bruker, USA). The purity (>95%) and mass data of all the synthesized peptides are provided in the Supporting Information.
8. Comparative Hydrophobicity analysis
The purity of all synthesized peptides was determined using reverse phase analytical HPLC
(Shimadzu; LC-20ADXR). Below mentioned are the conditions used to conduct the purity
Column: Phenomenex (Luna), 4 um, C18, 150 × 4.6 mm
Mobile Phase: Buffer A-Water containing 0.1% TFA,
Buffer B-Acetonitrile containing 0.1% TFA
Figure S52. HPLC chromatogram of 6a.
(1 picture or pasted object on this page, not shown here)

[6] = 10^6 CFU/mL, highest MIC of three independent experiments in triplicate
[7] = hRBC suspension 4% in PBS, hemoglobin release at 567 nm, 1% Triton X-100 = 100%
[8] = value in parentheses (μM), hRBC 4% in PBS, 567 nm

Substance	MIC, P. aeruginosa (ATCC 27883) [1, 6] [µg/mL]	MIC, P. aeruginosa (ATCC 27883) ([1]; value in parentheses (μM)) [µM]	MIC, E. coli (ATCC 25922) (E. coli (ATCC 25922); [6]) [µg/mL]	MIC, E. coli (ATCC 25922) (E. coli (ATCC 25922); value in parentheses (μM)) [µM]	MIC, MRSA (ATCC BAA-1556) (MRSA (ATCC BAA-1556); [6]) [µg/mL]	MIC, MRSA (ATCC BAA-1556) (MRSA (ATCC BAA-1556); value in parentheses (μM)) [µM]	MIC, S. aureus (ATCC 29213) (S. aureus (ATCC 29213); [6]) [µg/mL]	MIC, S. aureus (ATCC 29213) (S. aureus (ATCC 29213); value in parentheses (μM)) [µM]	HC50 (concentration at which 50% hemolysis was observed) [2, 7] [µg/mL]	HC50 (concentration at which 50% hemolysis was observed) [2, 8] [µM]	[θ]222 mean residue molar ellipticity, TFE [3]	[θ]222 mean residue molar ellipticity, Liposomes [3]	[θ]222 mean residue molar ellipticity, PBS [3]	Δ[θ]222 induced by TFE [3]	Δ[θ]222 induced by Liposomes [3]	% of helicity induced by TFE [3] [%]	% of helicity induced by Liposomes [3] [%]	MIC, K. pneumoniae (ATCCBAA-1705) [4, 6] [µg/mL]	MIC, K. pneumoniae (ATCCBAA-1705) ([4]; value in parentheses (μM)) [µM]	tR, RP-HPLC retention time (measure of overall hydrophobicity) [5] [min]
KWAKKWWKWWKK-NH2 [6e]	25	13.98	25	13.98	12.5	6.99	12.5	6.99	360	201.32	-18419 mdeg cm2/(dmol × res)	-13181 mdeg cm2/(dmol × res)	-7968 mdeg cm2/(dmol × res)	-10451	-5213	56.74	39.55	50	27.96	29.87
KWLKKWWKWWKK-NH2 [8e]	12.5	6.83	12.5	6.83	12.5	6.83	12.5	6.83	240	131.13	-11148 mdeg cm2/(dmol × res)	-15042 mdeg cm2/(dmol × res)	-5411 mdeg cm2/(dmol × res)	-5736	-9630	51.45	64.02	25	13.66	34.10
Ac-KWIKKWIKWWKK-NH2 [7d]	12.5	6.95	12.5	6.95	6.2	3.45	6.2	3.45	160	88.92	-11272 mdeg cm2/(dmol × res)	-19755 mdeg cm2/(dmol × res)	-3826 mdeg cm2/(dmol × res)	-7446	-15929	66.05	80.63	25	13.89	38.75
Ac-RWLRRWLRWWRR-NH2 [8c]	12.5	6.35	12.5	6.35	6.2	3.15	6.2	3.15	30	15.25	-13735 mdeg cm2/(dmol × res)	-19930 mdeg cm2/(dmol × res)	-8173 mdeg cm2/(dmol × res)	-5562	-11757	40.49	58.99	12.5	6.35	41.20
KWAKKWAKWWKK-NH2 [6b]	> 100	> 59.77	> 100	> 59.77	100	59.77	100	59.77	> 500	> 298.85	-14689 mdeg cm2/(dmol × res)	-20391 mdeg cm2/(dmol × res)	-7476 mdeg cm2/(dmol × res)	-7212	-12915	49.10	63.33	> 100	> 59.77	28.98
WRRWWRR-NH2 [1c]	> 100	> 83.30	> 100	> 83.30	100	83.30	100	83.30	> 500	> 416.52	-4646 mdeg cm2/(dmol × res)	-3092 mdeg cm2/(dmol × res)	-2638 mdeg cm2/(dmol × res)	-2008	-454	43.22	14.68	> 100	> 83.30	–
RWWRRAWAR-NH2 [3e]	> 100	> 74.48	> 100	> 74.48	> 100	> 74.48	> 100	> 74.48	> 500	> 372.42	-8008 mdeg cm2/(dmol × res)	-4987 mdeg cm2/(dmol × res)	-4113 mdeg cm2/(dmol × res)	-3895	-874	48.63	17.53	> 100	> 74.48	–
